{"source": "paper PMC4132888", "about": "(Biopolymers, 2014)", "origin": "cited, not measured here", "key": {"[1]": {"biological_target": "MOR", "settings": "read-out: Binding MOR; ref [33]"}, "[2]": {"biological_target": "DOR", "settings": "read-out: Binding DOR; ref [33]"}, "[3]": {"biological_target": "KOR"}, "[4]": {"biological_target": "T1, rat μ opioid receptor (MOR) (Rattus norvegicus, UniProt P33535)", "T1 sequence (P33535 whole entry)": "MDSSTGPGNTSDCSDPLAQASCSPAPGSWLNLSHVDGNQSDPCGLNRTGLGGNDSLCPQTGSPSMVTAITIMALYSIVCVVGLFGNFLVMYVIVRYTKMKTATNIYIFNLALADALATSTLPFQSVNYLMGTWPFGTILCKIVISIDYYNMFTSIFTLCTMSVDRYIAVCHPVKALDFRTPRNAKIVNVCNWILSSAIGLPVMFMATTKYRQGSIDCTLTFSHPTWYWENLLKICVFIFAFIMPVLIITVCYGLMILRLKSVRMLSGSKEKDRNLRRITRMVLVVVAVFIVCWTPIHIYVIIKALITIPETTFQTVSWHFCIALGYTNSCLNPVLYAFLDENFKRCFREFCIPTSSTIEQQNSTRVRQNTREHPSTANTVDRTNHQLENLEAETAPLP", "settings": "previously reported; ref [13]"}, "[5]": {"biological_target": "T2, rat δ opioid receptor (DOR) (Rattus norvegicus, UniProt P33533)", "T2 sequence (P33533 whole entry)": "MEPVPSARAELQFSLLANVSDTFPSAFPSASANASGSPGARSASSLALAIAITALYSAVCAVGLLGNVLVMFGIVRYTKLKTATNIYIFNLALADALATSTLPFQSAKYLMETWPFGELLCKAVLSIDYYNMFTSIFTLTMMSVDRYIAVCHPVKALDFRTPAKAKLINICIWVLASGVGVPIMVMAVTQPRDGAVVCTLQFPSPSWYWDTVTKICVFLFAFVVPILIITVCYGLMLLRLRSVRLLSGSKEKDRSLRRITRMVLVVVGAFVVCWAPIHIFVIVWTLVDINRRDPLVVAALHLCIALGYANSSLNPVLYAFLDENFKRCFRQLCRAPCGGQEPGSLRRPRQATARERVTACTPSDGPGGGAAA", "settings": "previously reported; ref [13]"}, "[6]": {"biological_target": "T1, rat μ opioid receptor (MOR)", "settings": "previously reported; ref [13]", "remark": "listed apart in the source"}, "[7]": {"biological_target": "T2, rat δ opioid receptor (DOR)", "settings": "previously reported; ref [13]", "remark": "listed apart in the source"}}, "note": "Where no end group is shown, it is not given here. [ ]: non-standard residue; d: D form."}
{"substance": "Y[dT]GFLS-NH2 [DTLES]", "values": [{"measurement": "Ki", "setting": "[1]", "value": "1.4 ± 0.08", "unit": "nM"}, {"measurement": "Ki", "setting": "[2]", "value": "4.1 ± 0.41", "unit": "nM"}, {"measurement": "Ki", "setting": "[3]; read-out: Binding KOR, ref [33]", "value": "34 ± 2.2", "unit": "nM"}]}
{"substance": "Dmt-c(S-Et-S)[DCys-Aic-DPen]OH [KSK-103]", "values": [{"measurement": "Binding for MOR (in words)", "setting": "[4]", "value": "low nanomolar binding"}, {"measurement": "Binding for DOR (in words)", "setting": "[5]", "value": "low nanomolar binding"}, {"measurement": "Agonist activity at MOR (in words)", "setting": "[6]", "value": "moderate agonist activity"}, {"measurement": "Stimulation of DOR (in words)", "setting": "[7]", "value": "no stimulation"}]}
{"substance": "Tyr-DThr-Gly-Phe-Leu-Ser-(O-β-D-lactose)-NH2 [MMP-2200]", "values": [{"measurement": "KOR affinity (in words)", "setting": "[3]; ref Polt and co-workers", "value": "high KOR affinity"}]}
